ChEMBL document CHEMBL5608215, “Development of amphipathic derivatives of thymol and carvacrol as potent broad-spectrum antibacterial agents” (Eur J Med Chem, 2024)
In brackets after ≈: the same amount, converted by molar mass. Activity calls are given as the source filed them. No cut-off for these calls is given here.

What was measured:
Pseudomonas aeruginosa [1] = assay: Antibacterial activity against Pseudomonas aeruginosa ATCC27853 by CLSI based serial dilution method; assay type: functional
Enterococcus = assay: Antibacterial activity against vancomycin-resistant Enterococcus ATCC51299 by CLSI based serial dilution method; assay type: functional
Staphylococcus aureus [2] = assay: Antibacterial activity against Staphylococcus aureus ATCC29213 infected in mouse model assessed as normalization of skin cell morphology at 5 mg/kg, sc measured after 24 hrs by H and E staining based analysis; assay type: functional, organism-based
Staphylococcus aureus [3] = assay: Antibacterial activity against Staphylococcus aureus ATCC29213 infected in mouse model assessed as bacterial load in abscesses at 5 mg/kg, sc measured after 24 hrs; assay type: functional
Enterococcus faecalis = assay: Antibacterial activity against Enterococcus faecalis ATCC29212 by CLSI based serial dilution method; assay type: functional
Escherichia coli [4] = assay: Antibacterial activity against Escherichia coli ATCC25922 by CLSI based serial dilution method; assay type: functional
Staphylococcus aureus [5] = assay: Antibacterial activity against Staphylococcus aureus ATCC29213 infected in mouse model assessed as reduction in inflammatory factors in skin at 5 mg/kg, sc measured after 24 hrs by H and E staining based analysis; assay type: functional, organism-based
Staphylococcus aureus [6] = assay: Antibacterial activity against Staphylococcus aureus ATCC29213 by CLSI based serial dilution method; assay type: functional
Staphylococcus aureus [7] = assay: Bactericidal activity against Staphylococcus aureus ATCC29213 assessed as log reduction in bacterial growth at 8 times MIC incubated for 24 hrs by time-kill assay; assay type: functional
Staphylococcus aureus [8] = assay: Bactericidal activity against Staphylococcus aureus ATCC29213 incubated upto 24 hrs by time-kill assay; assay type: functional, organism-based
Staphylococcus aureus [9] = assay: Antibacterial activity against methicillin-resistant Staphylococcus aureus 21-5 by CLSI based serial dilution method; assay type: functional
Escherichia coli [10] = assay: Bactericidal activity against Escherichia coli ATCC25922 incubated upto 24 hrs by time-kill assay; assay type: functional, organism-based
Staphylococcus aureus [11] = assay: Bactericidal activity against Staphylococcus aureus ATCC29213 at 8 times MIC incubated for 24 hrs by time-kill assay relative to control; assay type: functional
Staphylococcus aureus [12] = assay: Inhibition of antibiotic-resistance in Staphylococcus aureus ATCC29213 at 0.5 times of MIC incubated for 20 days; assay type: functional; details: time 20.0 day
Pseudomonas aeruginosa [13] = assay: Anti-biofilm activity against Pseudomonas aeruginosa ATCC27853 assessed as biofilm formation rate at 8 times MIC incubated for 48 hrs by crystal violet staining based analysis relative to control; assay type: functional
Escherichia coli [14] = assay: Bactericidal activity against Escherichia coli ATCC25922 at MIC incubated for 24 hrs by time-kill assay; assay type: functional, organism-based
Escherichia coli [15] = assay: Bactericidal activity against Escherichia coli ATCC25922 assessed as inhibition of bacterial regrowth at 8 times MIC incubated for 24 hrs by time-kill assay; assay type: functional, organism-based
Escherichia coli [16] = assay: Bactericidal activity against Escherichia coli ATCC25922 at 8 times MIC incubated for 12 hrs by time-kill assay relative to control; assay type: functional
Staphylococcus aureus [17] = assay: Bactericidal activity against Staphylococcus aureus ATCC29213 at MIC incubated for 24 hrs by time-kill assay; assay type: functional, organism-based

SMILES | MIC (Pseudomonas aeruginosa [1]) [µg/mL] | MIC (Enterococcus) [µg/mL] | Activity (Staphylococcus aureus [2]) | Activity (Staphylococcus aureus [3]) [log10CFU/g] | MIC (Enterococcus faecalis) [µg/mL] | MIC (Escherichia coli [4]) [µg/mL] | Activity (Staphylococcus aureus [5]) | MIC (Staphylococcus aureus [6]) [µg/mL] | Activity (Staphylococcus aureus [7]) [log10CFU/ml] | Activity (Staphylococcus aureus [8]) | MIC (Staphylococcus aureus [9]) [µg/mL] | Activity (Escherichia coli [10]) | Activity (Staphylococcus aureus [11]) [%] | inhibition (Staphylococcus aureus [12]) | Activity (Pseudomonas aeruginosa [13]) [%] | Activity (Escherichia coli [14]) | inhibition (Escherichia coli [15]) | Activity (Escherichia coli [16]) [%] | Activity (Staphylococcus aureus [17])
CN[C@H](CC(C)C)C(=O)N[C@H]1C(=O)N[C@@H](CC(N)=O)C(=O)N[C@H]2C(=O)N[C@H]3C(=O)N[C@H](C(=O)N[C@H](C(=O)O)c4cc(O)cc(O)c4-c4cc3ccc4O)[C@H](O)c3ccc(c(Cl)c3)Oc3cc2cc(c3O[C@@H]2O[C@H](CO)[C@@H](O)[C@H](O)[C@H]2O[C@H]2C[C@](C)(N)[C@H](O)[C@H](C)O2)Oc2ccc(cc2Cl)[C@H]1O [VANCOMYCIN] | > 128 | > 128 | Active | 3.2 | 2 (≈ 1.38 µM) | 128 (≈ 88.3 µM) | Active | – | – | – | – | – | – | – | – | – | – | – | –
CCCCCCN(CCCCCC)C(=O)C[N+](C)(C)CCCCOc1cc(C(C)C)ccc1C.[Br-] | 8 | 0.5 | – | – | 0.125 | 4 | – | 0.5 | >3 | Dose-Dependent Effect | 8 | Dose-Dependent Effect | >99.9 | Active | 55.3 | inactive | Active | 100 | inactive
